{
  "source": "patent US20230085307A1",
  "about": "“PYRIDAZINONE COMPOUND AND HERBICIDE” (NISSAN CHEMICAL CORPORATION, priority 2019, published 2023)",
  "conditions_in_all_cases": "amount of applied herbicide 320 g/ha",
  "key": {"barnyard grass [1]": {"tested_on": "barnyard grass", "assay": "Test Example 3: herbicidal effect by foliage application, Wagner pot (Table 18, symbol H)", "assay_type": "in vivo, barnyard grass (Echinochloa crus-galli)", "summary_of_the_method": "(§1)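 Plants were sown in alluvial soil held under 0.1–0.5 cm standing water and grown 14 days in a greenhouse at 25–30 °C. An emulsifiable formulation, water-diluted to the set dose, was then sprayed onto the foliage, and effects were scored three weeks later using previously defined criteria.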"}, "Chinese sprangletop": {"tested_on": "Chinese sprangletop", "assay": "Test Example 3: herbicidal effect by foliage application, Wagner pot (Table 18, symbol D)", "assay_type": "in vivo, chinese sprangletop (Leptochloa chinensis)", "summary_of_the_method": "as §1"}, "rice flat sedge": {"tested_on": "rice flat sedge", "assay": "Test Example 3: herbicidal effect by foliage application, Wagner pot (Table 18, symbol E)", "assay_type": "in vivo, rice flat sedge (Cyperus iria)", "summary_of_the_method": "as §1"}, "directly sowed rice": {"tested_on": "directly sowed rice", "assay": "Test Example 3: effect on crop by foliage application, Wagner pot (Table 18, symbol b)", "assay_type": "in vivo", "experimental": "[Test Example 3] Herbicidal Effect Test by Foliage Application After alluvial soil was placed into 1/10000 are of Wagner pot, water was poured and mixed to form a submerged condition having a water depth of 0.1 cm to 0.5 cm. Seeds of barnyard grass, Chinese sprangletop, rice flat sedge, and rice were sowed and the pot was placed in a greenhouse at 25° C. to 30° C. for growth of the plants. After 14-day growth of the plants, the emulsion agent of the compound of the present invention prepared according to Formulation Example 2 was diluted with water so as to achieve a predetermined herbicide amount, and the diluted emulsion agent was uniformly applied to a foliage part with a small-sized spray. Three weeks after the herbicide application, the effect of the herbicide on each plant was evaluated according to the criteria of Test Example 1."}, "southern crabgrass": {"tested_on": "southern crabgrass", "assay": "Test Example 4: herbicidal effect by soil treatment (Table 19, symbol F)", "assay_type": "in vivo, southern crabgrass (Digitaria ciliaris)", "summary_of_the_method": "(§2)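 Herbicidal effect was rated 3 weeks after treatment, using the scoring criteria of an earlier test. The compound, formulated as an emulsion and diluted in water to a set herbicide amount, had been sprayed uniformly on soil over freshly sown seeds. Growth took place in a greenhouse at 25° C. to 30° C.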"}, "green foxtail": {"tested_on": "green foxtail", "assay": "Test Example 4: herbicidal effect by soil treatment (Table 19, symbol G)", "assay_type": "in vivo, green foxtail (Setaria viridis)", "summary_of_the_method": "as §2"}, "barnyard grass [2]": {"tested_on": "barnyard grass", "assay": "Test Example 4: herbicidal effect by soil treatment (Table 19, symbol H)", "assay_type": "in vivo, barnyard grass (Echinochloa crus-galli)", "summary_of_the_method": "as §2"}, "wild oat": {"tested_on": "wild oat", "assay": "Test Example 4: herbicidal effect by soil treatment (Table 19, symbol I)", "assay_type": "in vivo, wild oat (Avena fatua)", "summary_of_the_method": "as §2"}, "blackgrass": {"tested_on": "blackgrass", "assay": "Test Example 4: herbicidal effect by soil treatment (Table 19, symbol J)", "assay_type": "in vivo, blackgrass (Alopecurus myosuroides)", "summary_of_the_method": "as §2"}, "Italian ryegrass": {"tested_on": "Italian ryegrass", "assay": "Test Example 4: herbicidal effect by soil treatment (Table 19, symbol K)", "assay_type": "in vivo, Italian ryegrass (Lolium multiflorum)", "summary_of_the_method": "as §2"}, "windgrass": {"tested_on": "windgrass", "assay": "Test Example 4: herbicidal effect by soil treatment (Table 19, symbol L)", "assay_type": "in vivo, windgrass (Apera spica-venti)", "summary_of_the_method": "as §2"}, "velvetleaf": {"tested_on": "velvetleaf", "assay": "Test Example 4: herbicidal effect by soil treatment (Table 19, symbol M)", "assay_type": "in vivo, velvetleaf (Abutilon theophrasti)", "summary_of_the_method": "as §2"}, "redroot pigweed": {"tested_on": "redroot pigweed", "assay": "Test Example 4: herbicidal effect by soil treatment (Table 19, symbol N)", "assay_type": "in vivo, redroot pigweed (Amaranthus retroflexus)", "summary_of_the_method": "as §2"}, "lambsquarters": {"tested_on": "lambsquarters", "assay": "Test Example 4: herbicidal effect by soil treatment (Table 19, symbol O)", "assay_type": "in vivo, lambsquarters (Chenopodium album)", "summary_of_the_method": "as §2"}, "chickweed": {"tested_on": "chickweed", "assay": "Test Example 4: herbicidal effect by soil treatment (Table 19, symbol P)", "assay_type": "in vivo, common chickweed (Stellaria media)", "summary_of_the_method": "as §2"}, "persian speedwell": {"tested_on": "persian speedwell", "assay": "Test Example 4: herbicidal effect by soil treatment (Table 19, symbol R)", "assay_type": "in vivo, Persian speedwell (Veronica persica)", "summary_of_the_method": "as §2"}, "corn": {"tested_on": "corn", "assay": "Test Example 4: effect on crop by soil treatment (Table 19, symbol c)", "assay_type": "in vivo", "text": "(§3) [Test Example 4] Herbicidal Effect Test by Soil Treatment\n(§4) Sterilized diluvial soil was placed in a plastic box having a length of 21 cm, a width of 13 cm, and a depth of 7 cm. The seeds of each of southern crabgrass, green foxtail, barnyard grass, wild oat, blackgrass, Italian ryegrass, windgrass, velvetleaf, redroot pigweed, lambsquarters, chickweed, false cleavers, persian speedwell, corn, soybean, rice, wheat, beet, and rapeseed were sowed in a spot-like manner and covered with the soil having a thickness of about 1.5 cm. Subsequently, the emulsion agent of the compound of the present invention prepared according to Formulation Example 2 was diluted with water so as to achieve a predetermined herbicide amount, and the diluted emulsion agent was uniformly applied to the surface of the soil with a small-sized spray. The plastic box was placed in a greenhouse at 25° C. to 30° C. for growth of the plants. Three weeks after the herbicide application, the effect of the herbicide on each plant was evaluated according to the criteria of Test Example 1."}, "soybean": {"tested_on": "soybean", "assay": "Test Example 4: effect on crop by soil treatment (Table 19, symbol d)", "assay_type": "in vivo", "text": "as §3, §4"}, "wheat": {"tested_on": "wheat", "assay": "Test Example 4: effect on crop by soil treatment (Table 19, symbol e)", "assay_type": "in vivo", "text": "as §3, §4"}},
  "data": [
    {"smiles": "COc1ccccc1-c1sc2ccc(C3CC3)cc2c1-c1c(O)c(C)nn(C)c1=O", "note": "[Compound No. 2-160, 4-(5-cyclopropyl-2-(2-methoxyphenyl)benzo[b]thiophen-3-yl)-5-hydroxy-2,6-dimethylpyridazin-3(2H)-one]", "values": [
      {"measurement": "herbicidal effect on H: barnyard grass", "setting": "barnyard grass [1]", "value": "4 (Herbicidal rate of 70% or more and less than 90%)"},
      {"measurement": "herbicidal effect on D: Chinese sprangletop", "setting": "Chinese sprangletop", "value": "3 (Herbicidal rate of 40% or more and less than 70%)"},
      {"measurement": "herbicidal effect on E: rice flat sedge", "setting": "rice flat sedge", "value": "3 (Herbicidal rate of 40% or more and less than 70%)"},
      {"measurement": "effect on crop b: directly sowed rice", "setting": "directly sowed rice", "value": "0 (Herbicidal rate of 5% or less (almost no effect))"},
      {"measurement": "F: southern crabgrass, herbicidal effect rating", "setting": "southern crabgrass", "value": "0 (Herbicidal rate of 5% or less (almost no effect))"},
      {"measurement": "G: green foxtail, herbicidal effect rating", "setting": "green foxtail", "value": "0 (Herbicidal rate of 5% or less (almost no effect))"},
      {"measurement": "H: barnyard grass, herbicidal effect rating", "setting": "barnyard grass [2]", "value": "0 (Herbicidal rate of 5% or less (almost no effect))"},
      {"measurement": "I: wild oat, herbicidal effect rating", "setting": "wild oat", "value": "0 (Herbicidal rate of 5% or less (almost no effect))"},
      {"measurement": "J: blackgrass, herbicidal effect rating", "setting": "blackgrass", "value": "0 (Herbicidal rate of 5% or less (almost no effect))"},
      {"measurement": "K: Italian ryegrass, herbicidal effect rating", "setting": "Italian ryegrass", "value": "0 (Herbicidal rate of 5% or less (almost no effect))"},
      {"measurement": "L: windgrass, herbicidal effect rating", "setting": "windgrass", "value": "3 (Herbicidal rate of 40% or more and less than 70%)"},
      {"measurement": "M: velvetleaf, herbicidal effect rating", "setting": "velvetleaf", "value": "0 (Herbicidal rate of 5% or less (almost no effect))"},
      {"measurement": "N: redroot pigweed, herbicidal effect rating", "setting": "redroot pigweed", "value": "0 (Herbicidal rate of 5% or less (almost no effect))"},
      {"measurement": "O: lambsquarters, herbicidal effect rating", "setting": "lambsquarters", "value": "0 (Herbicidal rate of 5% or less (almost no effect))"},
      {"measurement": "P: chickweed, herbicidal effect rating", "setting": "chickweed", "value": "1 (Herbicidal rate of 5% or more and less than 20%)"},
      {"measurement": "R: persian speedwell, herbicidal effect rating", "setting": "persian speedwell", "value": "1 (Herbicidal rate of 5% or more and less than 20%)"},
      {"measurement": "c: corn, effect on crop rating", "setting": "corn", "value": "0 (Herbicidal rate of 5% or less (almost no effect))"},
      {"measurement": "d: soybean, effect on crop rating", "setting": "soybean", "value": "0 (Herbicidal rate of 5% or less (almost no effect))"},
      {"measurement": "e: wheat, effect on crop rating", "setting": "wheat", "value": "0 (Herbicidal rate of 5% or less (almost no effect))"}
    ]}
  ]
}
